Experiments:
PSMA = molecular target: T1, PSMA (Homo sapiens, UniProt Q04609); assay: NAALADase assay (NAAG hydrolysis, LNCaP cell extracts); assay type: biochemical; conditions: for Ki: LNCaP cell extracts, Cheng-Prusoff conversion, read-out: Ki (PSMA inhibitory activity)
T1 construct: LNCaP cell extracts were prepared by sonication in NAALADase buffer; endogenous in cells; host or cells: LNCaP cell extract (sonicated in 50 mM Tris pH 7.4, 0.5% Triton X-100)
Description: The relative binding affinities of L1-L7 and ReL1-ReL7, were determined using the N-acetylated-α-linked acidic dipeptidase (NAALADase) assay as previously described.
NAAG hydrolysis was performed essentially as described previously (Robinson, M. B.; et al. J Biol Chem 1987, 262, 14498-14506; Lupold, S. E.; et al. Cancer Res 2002, 62, 4029-4033.). In short, LNCaP cell extracts were prepared by sonication in NAALADase buffer [50 mM Tris (pH 7.4) and 0.5% Triton X-100]. Cell lysates were incubated with or without inhibitor at 37° C. for 10 minutes. Following the incubation the radiolabeled substrate N-acetyl-L-aspartyl-L-(3,4-^3H)glutamate (NEN Life Science Products, Boston, Mass.) was added to a final concentration of 30 nM at 37° C. for 10-15 min. The reaction was stopped by the addition of an equal volume of ice-cold 100 mM sodium phosphate and 2 mM EDTA. Products were partitioned by AG 1-X8 formate resin (Bio-Rad Laboratories) anion exchange chromatography, eluted with 1 M sodium formate, and quantified by liquid scintillation counting. […] Assays were performed in triplicate with the entire inhibition study being repeated at least once to confirm affinity and mode of inhibition. Data were collected during linear phase of hydrolysis (i.e., <20% cleavage of total substrate). Enzyme inhibitory constants (Ki values) were generated using the Cheng-Prusoff conversion (Cheng, Y.; Prusoff, W. H. Biochem Pharmcol 1973, 22, 3099-3108).

[1] = Metabolite studies (HPLC of tissue extracts, plasma, urine); assay type: in vivo, mice
Description: Mice were sacrificed at either 30 min or 1 h postinjection by cervical dislocation and their blood and selected organs were removed. Blood samples were withdrawn using heparinized syringes and tissues were placed on ice prior to manual homogenization in PBS, pH 7.4. Plasma and tissue homogenates in PBS were centrifuged for 2 min at 13,000×g at ambient temperature. A portion of the supernatant was diluted to 4 mL in 8 M urea containing 50 mg citric acid. Urine samples were added directly to 4 mL of the acidified urea solution. Samples then underwent separation by HPLC as previously described (Hilton, J.; et al. Nucl Med Biol 2000, 27, 627-630). Briefly, the 4 mL sample in 8 M acidified urea was passed through a capture column (Strata-X, 19×4.4 mm, Phenomenex, Torrance, Calif.) at 2 mL/min followed by 1% acetonitrile in water to wash plasma proteins from the column. The effluent from the capture column, containing only highly polar components, flowed through a dual BGO detector (Bioscan, Washington, D.C.) operating in the […]. The solvent was then switched to 30% acetonitrile:50 mM phosphate buffer at pH 2.4 (2 mL/min) for elution of the radiolabeled components previously bound to the capture column onto the analytical column (Synergi Polar-RP 250×4.6 mm 10 micron particle size Phenomenex).

[2] = tested on: PSMA+ PC3 PIP and PSMA− PC3 flu xenografts; conditions: for PIP (PSMA+) tumor uptake on SPECT-CT: SCID mice, 0.5-1 mCi i.v., imaged at 45 min p.i.; for uptake in normal organs (gallbladder, liver, kidneys) on SPECT-CT: mouse, in vivo, iv; for tumor contrast on late SPECT-CT images: several hours after injection (3.5-4 h uptake period)
[3] = tested on: PSMA+ PC3 PIP and PSMA− PC3 flu xenografts; conditions: mouse, in vivo

T1 sequence (Q04609 whole entry): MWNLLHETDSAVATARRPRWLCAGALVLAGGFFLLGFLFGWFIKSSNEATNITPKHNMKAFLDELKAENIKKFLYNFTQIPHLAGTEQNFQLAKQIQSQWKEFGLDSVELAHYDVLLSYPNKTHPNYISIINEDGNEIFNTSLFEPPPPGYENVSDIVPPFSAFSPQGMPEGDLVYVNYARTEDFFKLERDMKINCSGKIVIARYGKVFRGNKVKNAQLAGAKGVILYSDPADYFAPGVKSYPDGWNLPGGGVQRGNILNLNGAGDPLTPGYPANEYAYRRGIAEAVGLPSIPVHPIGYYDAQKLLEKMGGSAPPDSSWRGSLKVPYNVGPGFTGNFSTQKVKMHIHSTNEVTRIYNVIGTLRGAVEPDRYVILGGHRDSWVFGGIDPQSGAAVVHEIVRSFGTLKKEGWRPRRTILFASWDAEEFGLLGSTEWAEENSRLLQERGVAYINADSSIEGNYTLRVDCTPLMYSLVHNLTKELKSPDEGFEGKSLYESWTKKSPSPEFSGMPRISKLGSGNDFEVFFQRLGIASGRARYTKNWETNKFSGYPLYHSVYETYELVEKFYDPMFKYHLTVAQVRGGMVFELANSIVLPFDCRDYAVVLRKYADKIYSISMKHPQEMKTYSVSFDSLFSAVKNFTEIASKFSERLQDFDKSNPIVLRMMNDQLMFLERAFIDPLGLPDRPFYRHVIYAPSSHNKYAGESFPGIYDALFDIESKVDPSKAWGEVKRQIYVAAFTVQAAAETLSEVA

Compound `O=C(O)CCC(NC(=O)NC(CCCCNC(=O)CCCCCCC(=O)NCCCCC(C(=O)O)N(Cc1ccccn1)Cc1ccccn1)C(=O)O)C(=O)O` (centres unmarked) [Compound L3, 2-[3-(5-{7-[5-(Bis-pyridin-2-ylmethyl-amino)-5-carboxy-pentylcarbamoyl]-heptanoylamino}-1-carboxy-pentyl)-ureido]-pentanedioic acid] has a Ki (PSMA) of 1.08 nM.
With `O=C(O)CCC(NC(=O)NC(CCCCNC(=O)CCCCCCC(=O)NCCCCCCN(CC(=O)O)Cc1ccccn1)C(=O)O)C(=O)O` (centres unmarked) [Compound L4, 2-[3-(1-Carboxy-5-{7-[6-(carboxymethyl-pyridin-2-ylmethyl-amino)-hexylcarbamoyl]-heptanoylamino}-pentyl)-ureido]-pentanedioic acid] the Ki (PSMA) was 2.54 nM.
`O=C(O)CCC(NC(=O)NC(CCCCNC(=O)CCCCCCCN(Cc1ccccn1)Cc1ccccn1)C(=O)O)C(=O)O` (centres unmarked) [Compound L5, 2-(3-{5-[8-(Bis-pyridin-2-ylmethyl-amino)-octanoylamino]-1-carboxy-pentyl}-ureido)-pentanedioic acid] showed a Ki (PSMA) of 1.86 nM.
`O=C(O)CCC(NC(=O)NC(CCCCN(Cc1ccccn1)Cc1ccccn1)C(=O)O)C(=O)O` (centres unmarked) [Compound L6, 2-{3-[5-(Bis-pyridin-2-ylmethyl-amino)-1-carboxy-pentyl]-ureido}-pentanedioic acid] gave a Ki (PSMA) of 7.53 nM.
`O=C(O)CCC(NC(=O)NC(CCCCNC(=O)CCCCCCC(=O)NCCCCCCN(Cc1ccccn1)Cc1ccccn1)C(=O)O)C(=O)O` (centres unmarked) [Compound L7, 2-[3-(5-{7-[6-(Bis-pyridin-2-ylmethyl-amino)-hexylcarbamoyl]-heptanoylamino}-1-carboxy-pentyl)-ureido]-pentanedioic acid] gave a Ki (PSMA) of 0.45 nM.
With `O=C(O)CCC(NC(=O)NC(CCCCNC(=O)CCCCCCC(=O)NC(CCCCNC(=O)CN1CCN(CC(=O)O)CCN(CC(=O)O)CCN(CC(=O)O)CC1)C(=O)O)C(=O)O)C(=O)O` (centres unmarked) [DOTA-L1, 2-{3-[1-Carboxy-5-(7-{1-carboxy-5-[2-(4,7,10-tris-carboxymethyl-1,4,7,10tetraaza-cyclododec-1-yl)-acetylamino]-pentylcarbamoyl}-heptanoylamino)-pentyl]-ureido}-pentanedioic acid] the IC50 (PSMA) was 0.8 nM.
Work on `O=C(O)CCC(NC(=O)NC(CCCCNC(=O)CCCCCCC(=O)NCCCCC(C(=O)O)N(Cc1ccccn1)Cc1ccccn1)C(=O)O)C(=O)O.[Br-].[C-]#[O+].[C-]#[O+].[C-]#[O+].[Re+]` (stereo not drawn) [ReL3, Tricarbonyl(2-[3-(5-{7-[5-(bis-pyridin-2-ylmethyl-amino)-5-carboxy-pentylcarbamoyl]-heptanoylamino}-1-carboxy-pentyl)-ureido]-pentanedioic acid)rehenium bromide] yielded a Ki (PSMA) of 10.3 nM.
For `O=C(O)CCC(NC(=O)NC(CCCCNC(=O)CCCCCCC(=O)NCCCCCCN(CC(=O)[O][Re])Cc1ccccn1)C(=O)O)C(=O)O.[C-]#[O+].[C-]#[O+].[C-]#[O+]` (stereo not drawn) [ReL4, Tricarbonyl(2-[3-(1-carboxy-5-{7-[6-(carboxymethyl-pyridin-2-ylmethyl-amino)-hexylcarbamoyl]-heptanoylamino}-pentyl)-ureido]-pentanedioic acid) rhenium], the Ki (PSMA) was 0.17 nM and the “fold higher PSMA inhibitory potency than ReL7” value (PSMA; relative to ReL7) was “about 12 fold”.
In the case of `O=C(O)CCC(NC(=O)NC(CCCCNC(=O)CCCCCCCN(Cc1ccccn1)Cc1ccccn1)C(=O)O)C(=O)O.[Br-].[C-]#[O+].[C-]#[O+].[C-]#[O+].[Re+]` (stereo not drawn) [ReL5, Tricarbonyl(2-(3-{5-[8-(bis-pyridin-2-ylmethyl-amino)-octanoylamino]-1-carboxy-pentyl}-ureido)-pentanedioic acid)rhenium bromide], the Ki (PSMA) is reported as 0.91 nM.
`O=C(O)CCC(NC(=O)NC(CCCCN(Cc1ccccn1)Cc1ccccn1)C(=O)O)C(=O)O.[Br-].[C-]#[O+].[C-]#[O+].[C-]#[O+].[Re+]` (stereo not drawn) [ReL6, Tricarbonyl(2-{3-[5-(bis-pyridin-2-ylmethyl-amino)-1-carboxy-pentyl]-ureido}-pentanedioic acid)rhenium bromide] gave a Ki (PSMA) of 200 nM.
Work on `O=C(O)CCC(NC(=O)NC(CCCCNC(=O)CCCCCCC(=O)NCCCCCCN(Cc1ccccn1)Cc1ccccn1)C(=O)O)C(=O)O.[Br-].[C-]#[O+].[C-]#[O+].[C-]#[O+].[Re+]` (stereo not drawn) [ReL7, Tricarbonyl(2-[3-(5-{7-[6-(Bis-pyridin-2-ylmethyl-amino)-hexylcarbamoyl]-heptanoylamino}-1-carboxy-pentyl)-ureido]-pentanedioic acid)rhenium bromide] yielded a Ki (PSMA) of 2.06 nM.
For `O=C(O)CC[C@H](NC(=O)N[C@@H](CCCCNC(=O)CCCCCCC(=O)N[C@@H](CCCCN(Cc1ccccn1)Cc1ccccn1)C(=O)O)C(=O)O)C(=O)O.[99Tc+].[C-]#[O+].[C-]#[O+].[C-]#[O+]` [[^99mTc]L1], the “chromatographed radioactivity as the parent compound” value ([1]; all other tissue extracts, plasma and urine at 30 and 60 min postinjection) was 100%, the “extracted radioactivity as a polar metabolite” value ([1]; mouse kidney extracted 60 min after injection) was 2% and the “PIP (PSMA+) tumor uptake on SPECT-CT” value [2] was “strongly positive PIP tumor”. The “uptake in normal organs (gallbladder, liver, kidneys) on SPECT-CT” value (“uptake in normal organs” below) [2] was “gallbladder uptake and clear visualization of the kidneys” and the “tumor contrast on late SPECT-CT images” value [2] was “higher contrast of tumor with respect to background”.
For `O=C(O)CC[C@H](NC(=O)N[C@@H](CCCCNC(=O)CCCCCCC(=O)N[C@@H](CCCCN(Cc1ccc2ccccc2n1)Cc1ccc2ccccc2n1)C(=O)O)C(=O)O)C(=O)O.[99Tc+].[C-]#[O+].[C-]#[O+].[C-]#[O+]` [[^99mTc]L2], the “PIP (PSMA+) tumor uptake on SPECT-CT” value [2] was “weak PIP tumor uptake” and the “uptake in normal organs” value [2] was “strong gallbladder uptake and kidney uptake”.
With `O=C(O)CCC(NC(=O)NC(CCCCNC(=O)CCCCCCC(=O)NCCCCC(C(=O)O)N(Cc1ccccn1)Cc1ccccn1)C(=O)O)C(=O)O.[99Tc+].[C-]#[O+].[C-]#[O+].[C-]#[O+]` (centres unmarked) [[^99mTc]L3] the “PIP (PSMA+) tumor uptake on SPECT-CT” value [2] was “strong PIP tumor uptake”, the “uptake in normal organs” value [2] was “gallbladder uptake and clear visualization of the kidneys” and the “tumor contrast on late SPECT-CT images” value [2] was “higher contrast of tumor with respect to background”. For the same compound, the “PIP:flu uptake ratio, held steady” value [3] was “around 5”.
For `O=C(O)CC[C@H](NC(=O)N[C@@H](CCCCNC(=O)CCCCCCCN(Cc1ccccn1)Cc1ccccn1)C(=O)O)C(=O)O.[99Tc+].[C-]#[O+].[C-]#[O+].[C-]#[O+]` [[^99mTc]L5], the “PIP (PSMA+) tumor uptake on SPECT-CT” value [2] was “qualitatively similar to [^99mTc]L4”.
With `O=C(O)CC[C@H](NC(=O)N[C@@H](CCCCN(Cc1ccccn1)Cc1ccccn1)C(=O)O)C(=O)O.[99Tc+].[C-]#[O+].[C-]#[O+].[C-]#[O+]` [[^99mTc]L6] the “PIP (PSMA+) tumor uptake on SPECT-CT” value [2] was “no PIP tumor-specific uptake”.
Compound “Tricarbonyl (2-[3-(5-{7-[5-(bis-pyridin-2-ylmethyl-amino)-1-carboxy-pentylcarbamoyl]-heptanoylamino}-1-carboxy-pentyl)-ureido]-pentanedioic acid) rhenium bromide [ReL1]” has a Ki (PSMA) of 10.8 nM.

Source: patent US10039845B2, “Labeled inhibitors of prostate specific membrane antigen (PSMA) biological evaluation, and use of imaging agents” (THE JOHNS HOPKINS UNIVERSITY, priority 2007, dated 2018)
